Data on 17 compounds can be found in patent US9416128B2, “Fused heterocyclic compounds as ion channel modulators” (Gilead Sciences, Inc., priority 2013, dated 2016).

One assay concerns the target T1, hNaV1.2 (SCN2A) (Homo sapiens, UniProt Q99250).
T1 construct: expressed in transfected cells
In words: Use-dependent inhibition of the CNS NaV1.2 sodium channel. As to conditions: HEK-293, % inhibition, 25 Hz; for inhibition at 1 µM: use-dependent block at 1 uM, read-out: Nav1.2 UDB 25 Hz 1 uM; for inhibition at 10 µM: use-dependent block at 10 uM, read-out: Nav1.2 UDB 25 Hz 10 uM. It is filed as cell-based. The protocol: HEK-293 cells stably expressing wild-type (WT) hNaV1.2 (SCN2A NCBI # NM_021007.2, SCN1B NCBI # NM_001037.4, SCN2B NCBI # NM_004588.2) were used to record INa. Cells are maintained with standard tissue culture procedures and stable channel expression is maintained with 800 ug/mL G418 and 3 ug/mL Puromycin in the culture medium. Unless otherwise noted, all reagents are purchased from Sigma-Aldrich (St Louis, Mo., U.S.A.).
Assays measuring Use-Dependent Block (UDB) of NaV1.2 are performed on an automated electrophysiology platform, QPatch 16X or QPatch HT (Sophion Bioscience, Copenhagen, Denmark), using the whole cell patch clamp technique to measure currents through the cell membrane. Series resistance compensation is set to 100% and series resistance and whole-cell compensation are performed automatically. Currents stored in the Sophion Bioscience Oracle database (Sophion Bioscience, Copenhagen, Denmark). Analysis is performed using QPatch Assay software and data are compiled in Excel 2010 (Microsoft, Seattle, Wash., U.S.A.). The internal (pipette) solution consists of (in mM) 105 CsF, 10 NaF, 20 CsCl, 2 EGTA, 10 HEPES, 10 Dextrose with a pH of 7.35 and osmolarity of 300 mOsmol/kg. The external (bath) solution contains in (mM): 145 NaCl, 4 KCl, 1.8 CaCl2, 1 MgCl2, 10 dextrose, 10 HEPES, with a pH of 7.35 and osmolarity of 310 mOsmol/kg. Experiments are carried out at 23-25° C.
Compound stocks are routinely made by the Gilead Sample Bank in vials to 10 mM in dimethyl sulfoxide (DMSO). In some cases, when compounds are not soluble in DMSO, they are made in 100% ethanol. Stocks are sonicated as necessary. […]
Cells are allowed to stabilize for 10 min after establishment of the whole-cell configuration before current is measured. The test compound is applied 2 times at 60 second intervals. After the second compound addition, a 200 second wait period was imposed to allow for equilibration. Leak currents are subtracted by using an online P/4 procedure and all currents are low-pass Bessel filtered at 5 kHz and digitized at […].
Results are presented as mean percentage inhibition.
Use-dependent block of NaV1.2 peak current is measured during pulse number 20 of a voltage pulse train (0 mV, 20 ms, 20 pulses, 25 Hz) from a holding potential of −120 mV.
Currents are normalized to the peak current recorded in response to the first pulse in each frequency train. The voltage protocol for UDB was performed in the absence and presence of compound and percentage inhibition was calculated with respect to the compound free condition.
Data analysis is performed using QPatch Assay Software 4.0, and Excel 2002 (Microsoft, Seattle, Wash., U.S.A.).

A further assay has as its target hNaV1.1 (SCN1A) (Homo sapiens, UniProt P35498). In words: Use-dependent inhibition of the CNS NaV1.1 sodium channel. It is filed as cell-based. The conditions noted are these: % inhibition, 25 Hz; for inhibition at 1 µM: use-dependent block at 1 uM, read-out: Nav1.1 UDB 25 Hz 1 uM; for inhibition at 10 µM: use-dependent block at 10 uM, read-out: Nav1.1 UDB 25 Hz 10 uM. In outline: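 Whole-cell automated patch clamp on HEK-293 cells stably expressing hNaV1.1, 23-25° C., CsF internal solution. Peak current at pulse 20 of a 25 Hz train (0 mV, 20 ms) from −120 mV, normalized to pulse 1; percentage inhibition versus compound-free condition.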

T1 sequence (Q99250 whole entry): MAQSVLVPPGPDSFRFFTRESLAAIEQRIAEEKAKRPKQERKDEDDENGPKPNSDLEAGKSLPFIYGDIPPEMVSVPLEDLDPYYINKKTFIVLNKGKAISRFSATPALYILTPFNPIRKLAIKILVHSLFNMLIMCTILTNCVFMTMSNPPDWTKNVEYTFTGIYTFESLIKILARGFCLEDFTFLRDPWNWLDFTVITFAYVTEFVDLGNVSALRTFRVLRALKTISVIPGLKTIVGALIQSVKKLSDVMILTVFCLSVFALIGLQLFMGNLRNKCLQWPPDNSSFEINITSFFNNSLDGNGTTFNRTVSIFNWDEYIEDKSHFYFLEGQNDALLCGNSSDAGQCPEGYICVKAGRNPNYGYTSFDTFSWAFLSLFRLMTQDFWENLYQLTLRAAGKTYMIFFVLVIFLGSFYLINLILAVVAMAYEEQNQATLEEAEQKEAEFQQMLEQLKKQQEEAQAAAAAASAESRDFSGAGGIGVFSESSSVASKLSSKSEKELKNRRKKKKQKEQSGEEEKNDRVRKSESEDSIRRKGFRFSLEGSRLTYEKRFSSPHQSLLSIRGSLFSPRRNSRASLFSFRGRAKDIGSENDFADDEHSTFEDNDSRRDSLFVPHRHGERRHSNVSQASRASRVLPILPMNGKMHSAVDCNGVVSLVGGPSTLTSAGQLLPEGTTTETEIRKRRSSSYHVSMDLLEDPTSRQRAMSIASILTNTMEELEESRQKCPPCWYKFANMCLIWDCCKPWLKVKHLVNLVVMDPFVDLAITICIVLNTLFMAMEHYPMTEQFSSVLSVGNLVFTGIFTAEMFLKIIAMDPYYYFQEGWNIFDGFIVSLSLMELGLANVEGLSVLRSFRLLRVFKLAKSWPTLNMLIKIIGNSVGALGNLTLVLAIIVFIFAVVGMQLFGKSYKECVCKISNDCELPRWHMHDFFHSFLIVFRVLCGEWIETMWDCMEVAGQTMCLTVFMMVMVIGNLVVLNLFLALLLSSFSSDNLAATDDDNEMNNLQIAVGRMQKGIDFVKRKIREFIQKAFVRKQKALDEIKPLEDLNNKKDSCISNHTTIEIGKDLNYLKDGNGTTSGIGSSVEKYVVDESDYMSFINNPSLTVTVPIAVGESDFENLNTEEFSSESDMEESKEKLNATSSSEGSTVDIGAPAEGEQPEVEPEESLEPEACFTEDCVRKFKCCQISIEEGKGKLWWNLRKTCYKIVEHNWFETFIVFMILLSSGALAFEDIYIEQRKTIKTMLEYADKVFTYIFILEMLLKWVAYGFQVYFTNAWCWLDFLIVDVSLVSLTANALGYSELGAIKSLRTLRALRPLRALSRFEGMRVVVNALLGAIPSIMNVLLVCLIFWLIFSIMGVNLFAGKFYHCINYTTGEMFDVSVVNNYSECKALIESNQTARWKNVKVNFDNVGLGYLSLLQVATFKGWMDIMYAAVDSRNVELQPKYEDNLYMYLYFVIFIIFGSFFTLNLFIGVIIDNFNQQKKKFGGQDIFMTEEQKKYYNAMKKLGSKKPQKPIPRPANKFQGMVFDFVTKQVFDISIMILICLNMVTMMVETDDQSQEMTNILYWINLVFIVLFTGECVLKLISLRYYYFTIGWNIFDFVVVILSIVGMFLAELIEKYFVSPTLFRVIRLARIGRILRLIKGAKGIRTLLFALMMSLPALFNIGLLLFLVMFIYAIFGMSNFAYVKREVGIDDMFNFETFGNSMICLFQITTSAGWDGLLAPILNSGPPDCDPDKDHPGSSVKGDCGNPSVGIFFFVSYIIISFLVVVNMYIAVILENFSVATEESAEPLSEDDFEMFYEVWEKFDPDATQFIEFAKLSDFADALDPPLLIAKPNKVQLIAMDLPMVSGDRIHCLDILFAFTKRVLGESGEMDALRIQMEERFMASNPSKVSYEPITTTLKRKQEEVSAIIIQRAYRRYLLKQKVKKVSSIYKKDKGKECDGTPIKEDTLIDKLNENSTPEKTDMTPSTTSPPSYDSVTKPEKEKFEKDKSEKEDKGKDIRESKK
T1 sequence (Q07699 19-218 partner): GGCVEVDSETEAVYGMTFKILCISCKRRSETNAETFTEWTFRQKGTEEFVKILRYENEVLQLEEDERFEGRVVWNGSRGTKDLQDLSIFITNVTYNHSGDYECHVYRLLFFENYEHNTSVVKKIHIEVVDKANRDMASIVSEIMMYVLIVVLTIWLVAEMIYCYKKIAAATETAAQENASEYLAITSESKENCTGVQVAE
T1 sequence (O60939 30-215 partner): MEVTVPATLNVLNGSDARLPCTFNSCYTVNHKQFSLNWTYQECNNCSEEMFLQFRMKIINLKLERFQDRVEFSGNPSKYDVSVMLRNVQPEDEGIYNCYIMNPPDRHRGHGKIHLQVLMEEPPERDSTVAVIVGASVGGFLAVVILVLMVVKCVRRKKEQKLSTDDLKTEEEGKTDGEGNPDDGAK

For the compound `COc1cc(OC(F)(F)F)ccc1-c1ccc2c(c1)CN(Cc1nccc(C)n1)C(=O)O2` [Example 31, 6-(2-methoxy-4-(trifluoromethoxy)phenyl)-3-((4-methylpyrimidin-2-yl)methyl)-3,4-dihydro-2H-benzo[e][1,3]oxazin-2-one], the inhibition at 1 µM at hNaV1.2 (SCN2A) came out at 13.2%; at hNaV1.1 (SCN1A) it was 6%. Further, the inhibition at 10 µM was 45.7% at hNaV1.2 (SCN2A) and 53.3% at hNaV1.1 (SCN1A).

With `Cc1ccnc(CN2Cc3cc(-c4ccc(OC(F)(F)F)cc4F)ccc3OC2=O)n1` [Example 32, 6-(2-fluoro-4-(trifluoromethoxy)phenyl)-3-((4-methylpyrimidin-2-yl)methyl)-3,4-dihydro-2H-benzo[e][1,3]oxazin-2-one], the inhibition at 1 µM at hNaV1.2 (SCN2A) worked out at 8.1%; on hNaV1.1 (SCN1A) it was 10.8%. For the same compound, the figures for the inhibition at 10 µM on hNaV1.2 (SCN2A) and on hNaV1.1 (SCN1A) were 41% and 61.8%, respectively.

With `Cc1ccnc(CN2Cc3cc(-c4ccc(OC(F)(F)F)cc4C)ccc3OC2=O)n1` [Example 33, 6-(2-methyl-4-(trifluoromethoxy)phenyl)-3-((4-methylpyrimidin-2-yl)methyl)-3,4-dihydro-2H-benzo[e][1,3]oxazin-2-one], the inhibition at 1 µM was determined as 17.2% at hNaV1.2 (SCN2A) and 5.5% on hNaV1.1 (SCN1A). The results for the inhibition at 10 µM on hNaV1.2 (SCN2A) and at hNaV1.1 (SCN1A) were 55.2% and 61.4%, respectively.

Turning to `COc1cc(C(F)(F)F)ccc1-c1ccc2c(c1)CN(Cc1ncccn1)C(=O)O2` [Example 34, 6-(2-methoxy-4-(trifluoromethyl)phenyl)-3-(pyrimidin-2-ylmethyl)-3,4-dihydro-2H-benzo[e][1,3]oxazin-2-one], the values for the inhibition at 1 µM at hNaV1.2 (SCN2A) and at hNaV1.1 (SCN1A) were 38.8% and 26.9%, respectively. The inhibition at 10 µM on hNaV1.2 (SCN2A) amounted to 78.5%; on hNaV1.1 (SCN1A), 76.1%.

`CCOc1cc(C(F)(F)F)ccc1-c1ccc2c(c1)CN(Cc1ncccn1)C(=O)O2` [Example 35, 6-(2-ethoxy-4-(trifluoromethyl)phenyl)-3-(pyrimidin-2-ylmethyl)-3,4-dihydro-2H-benzo[e][1,3]oxazin-2-one]: at hNaV1.2 (SCN2A), the inhibition at 1 µM was 39.3% and the inhibition at 10 µM amounted to 75.1%. On hNaV1.1 (SCN1A), the inhibition at 1 µM was determined as 37.6% and the inhibition at 10 µM worked out at 80.4%.

Consider `O=C1Oc2ccc(-c3ccc(C(F)(F)F)cc3F)cc2CN1Cc1ncccn1` [Example 36, 6-(2-fluoro-4-(trifluoromethyl)phenyl)-3-(pyrimidin-2-ylmethyl)-3,4-dihydro-2H-benzo[e][1,3]oxazin-2-one], for which the figures for the inhibition at 1 µM on hNaV1.2 (SCN2A) and at hNaV1.1 (SCN1A) were 19.1% and 22.8%, respectively. The inhibition at 10 µM turned out to be 55.9% on hNaV1.2 (SCN2A) and 68.7% at hNaV1.1 (SCN1A).

As for `Cc1cc(C(F)(F)F)ccc1-c1ccc2c(c1)CN(Cc1ncccn1)C(=O)O2` [Example 37, 6-(2-methyl-4-(trifluoromethyl)phenyl)-3-(pyrimidin-2-ylmethyl)-3,4-dihydro-2H-benzo[e][1,3]oxazin-2-one], on hNaV1.2 (SCN2A), the inhibition at 1 µM came out at 7.8% and the inhibition at 10 µM was found to be 27.1%. Moreover, at hNaV1.1 (SCN1A), the inhibition at 1 µM was 7.3% and the inhibition at 10 µM came to 67.7%.

Regarding `O=C1Oc2ccc(-c3ccc(C4(C(F)(F)F)CC4)cc3)cc2CN1Cc1ncccn1` [Example 38, 3-(pyrimidin-2-ylmethyl)-6-(4-(1-(trifluoromethyl)cyclopropyl)phenyl)-3,4-dihydro-2H-benzo[e][1,3]oxazin-2-one], at hNaV1.2 (SCN2A), the inhibition at 1 µM was found to be 34.1% and the inhibition at 10 µM amounted to 71.8%. At hNaV1.1 (SCN1A), the inhibition at 1 µM amounted to 49% and the inhibition at 10 µM amounted to 78.1%.

As to `CC(C)Oc1cc(OC(F)(F)F)ccc1-c1ccc2c(c1)CN(Cc1ncccn1)C(=O)O2` [Example 39, 6-(2-isopropoxy-4-(trifluoromethoxy)phenyl)-3-(pyrimidin-2-ylmethyl)-3,4-dihydro-2H-benzo[e][1,3]oxazin-2-one], at hNaV1.2 (SCN2A), the inhibition at 1 µM was determined as 16% and the inhibition at 10 µM was found to be 59.3%. At hNaV1.1 (SCN1A), the inhibition at 1 µM was determined as 39.1% and the inhibition at 10 µM amounted to 73.4%.

Regarding `CCOc1cc(OC(F)(F)F)ccc1-c1ccc2c(c1)CN(Cc1ncccn1)C(=O)O2` [Example 40, 6-(2-ethoxy-4-(trifluoromethoxy)phenyl)-3-(pyrimidin-2-ylmethyl)-3,4-dihydro-2H-benzo[e][1,3]oxazin-2-one], on hNaV1.2 (SCN2A), the inhibition at 1 µM worked out at 16.7% and the inhibition at 10 µM worked out at 62.5%. At hNaV1.1 (SCN1A), the inhibition at 1 µM came out at 22.6% and the inhibition at 10 µM turned out to be 71.3%.

Turning to `Cc1cnc(CN2Cc3cc(-c4ccc(C(F)(F)F)cc4F)ccc3OC2=O)nc1` [Example 41, 6-(2-fluoro-4-(trifluoromethyl)phenyl)-3-((5-methylpyrimidin-2-yl)methyl)-3,4-dihydro-2H-benzo[e][1,3]oxazin-2-one], the results for the inhibition at 1 µM on hNaV1.2 (SCN2A) and on hNaV1.1 (SCN1A) were 7.1% and less than 5%, respectively. In addition, the inhibition at 10 µM is 36.2% on hNaV1.2 (SCN2A) and 29% at hNaV1.1 (SCN1A).

Regarding `COc1cc(C(F)(F)F)ccc1-c1ccc2c(c1)CN(Cc1ncc(C)cn1)C(=O)O2` [Example 42, 6-(2-methoxy-4-(trifluoromethyl)phenyl)-3-((5-methylpyrimidin-2-yl)methyl)-3,4-dihydro-2H-benzo[e][1,3]oxazin-2-one], on hNaV1.2 (SCN2A), the inhibition at 1 µM was found to be 13.3% and the inhibition at 10 µM was 47.4%. For the same compound, on hNaV1.1 (SCN1A), the inhibition at 1 µM came to 11.5% and the inhibition at 10 µM was determined as 47.9%.

For the compound `Cc1cnc(CN2Cc3cc(-c4ccc(C(F)(F)F)cc4C)ccc3OC2=O)nc1` [Example 43, 6-(2-methyl-4-(trifluoromethyl)phenyl)-3-((5-methylpyrimidin-2-yl)methyl)-3,4-dihydro-2H-benzo[e][1,3]oxazin-2-one], the inhibition at 1 µM at hNaV1.2 (SCN2A) and on hNaV1.1 (SCN1A) was less than 5% each time. The inhibition at 10 µM was found to be 48.9% at hNaV1.2 (SCN2A) and 51.4% at hNaV1.1 (SCN1A).

As for `COc1cc(C(F)(F)F)ccc1-c1ccc2c(c1)CN(Cc1cccc(C)n1)C(=O)O2` [Example 44, 6-(2-methoxy-4-(trifluoromethyl)phenyl)-3-((6-methylpyridin-2-yl)methyl)-3,4-dihydro-2H-benzo[e][1,3]oxazin-2-one], on hNaV1.2 (SCN2A), the inhibition at 1 µM was determined as 20.9% and the inhibition at 10 µM was found to be 68.4%. Also, on hNaV1.1 (SCN1A), the inhibition at 1 µM is 25% and the inhibition at 10 µM stood at 84.5%.

Take `Cc1cccc(CN2Cc3cc(-c4ccc(C(F)(F)F)cc4F)ccc3OC2=O)n1` [Example 45, 6-(2-fluoro-4-(trifluoromethyl)phenyl)-3-((6-methylpyridin-2-yl)methyl)-3,4-dihydro-2H-benzo[e][1,3]oxazin-2-one]: on hNaV1.2 (SCN2A), the inhibition at 1 µM worked out at 10.4% and the inhibition at 10 µM was 62.3%. For the same compound, on hNaV1.1 (SCN1A), the inhibition at 1 µM was 19.9% and the inhibition at 10 µM amounted to 72.8%.

For `COc1cc(OC(F)(F)F)ccc1-c1ccc2c(c1)CN(Cc1cccc(C)n1)C(=O)O2` [Example 46, 6-(2-methoxy-4-(trifluoromethoxy)phenyl)-3-((6-methylpyridin-2-yl)methyl)-3,4-dihydro-2H-benzo[e][1,3]oxazin-2-one], the results for the inhibition at 1 µM on hNaV1.2 (SCN2A) and on hNaV1.1 (SCN1A) were 22.4% and 19%, respectively. Also, the inhibition at 10 µM at hNaV1.2 (SCN2A) amounted to 77.2%; on hNaV1.1 (SCN1A) it was 78.6%.

Regarding `Cc1cccc(CN2Cc3cc(-c4ccc(OC(F)(F)F)cc4F)ccc3OC2=O)n1` [Example 47, 6-(2-fluoro-4-(trifluoromethoxy)phenyl)-3-((6-methylpyridin-2-yl)methyl)-3,4-dihydro-2H-benzo[e][1,3]oxazin-2-one], the inhibition at 1 µM on hNaV1.2 (SCN2A) is 14.1%; on hNaV1.1 (SCN1A), less than 5%. Moreover, the inhibition at 10 µM is 55.6% at hNaV1.2 (SCN2A) and 69.2% on hNaV1.1 (SCN1A).
